Measurements from ChEMBL document CHEMBL5678818, “Discovery of potent SOS1 inhibitors that block RAS activation via disruption of the RAS-SOS1 interaction” (Proc Natl Acad Sci U S A, 2019).

Tests used:
[1] = target: Cyclin-dependent kinase 4 (Homo sapiens) (UniProt P11802); assay: Inhibition of CDK4 (unknown origin) assessed as residual activity at 1000 nM by KINOMEscan analysis relative to control
[2] = target: 5'-AMP-activated protein kinase catalytic subunit alpha-1 (Homo sapiens) (UniProt Q13131); assay: Inhibition of AMPK-alpha1 (unknown origin) assessed as residual activity at 100 nM by KINOMEscan analysis relative to control
[3] = target: T1, cAMP-dependent protein kinase catalytic subunit PRKX (Homo sapiens) (UniProt P51817); assay: Inhibition of PRKX (unknown origin) assessed as residual activity at 100 nM by KINOMEscan analysis relative to control
T1 sequence (whole entry): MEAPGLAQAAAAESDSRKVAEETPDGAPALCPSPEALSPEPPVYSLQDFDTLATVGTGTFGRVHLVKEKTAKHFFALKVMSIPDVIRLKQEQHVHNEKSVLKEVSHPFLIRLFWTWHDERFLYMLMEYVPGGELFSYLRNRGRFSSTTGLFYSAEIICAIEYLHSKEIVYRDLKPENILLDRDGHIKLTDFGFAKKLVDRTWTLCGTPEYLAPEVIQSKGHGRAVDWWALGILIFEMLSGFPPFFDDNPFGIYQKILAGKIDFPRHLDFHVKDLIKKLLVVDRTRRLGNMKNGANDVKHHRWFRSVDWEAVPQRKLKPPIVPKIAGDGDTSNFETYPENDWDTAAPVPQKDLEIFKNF

[4] = target: Ephrin type-A receptor 7 (Homo sapiens) (UniProt Q15375); assay: Inhibition of EPHA7 (unknown origin) assessed as residual activity at 100 nM by KINOMEscan analysis relative to control
[5] = target: Tyrosine-protein kinase SYK (Homo sapiens) (UniProt P43405); assay: Inhibition of SYK (unknown origin) assessed as residual activity at 100 nM by KINOMEscan analysis relative to control
[6] = target: T2, Muscle, skeletal receptor tyrosine-protein kinase (Homo sapiens) (UniProt O15146); assay: Inhibition of MUSK (unknown origin) assessed as residual activity at 100 nM by KINOMEscan analysis relative to control
T2 sequence (whole entry): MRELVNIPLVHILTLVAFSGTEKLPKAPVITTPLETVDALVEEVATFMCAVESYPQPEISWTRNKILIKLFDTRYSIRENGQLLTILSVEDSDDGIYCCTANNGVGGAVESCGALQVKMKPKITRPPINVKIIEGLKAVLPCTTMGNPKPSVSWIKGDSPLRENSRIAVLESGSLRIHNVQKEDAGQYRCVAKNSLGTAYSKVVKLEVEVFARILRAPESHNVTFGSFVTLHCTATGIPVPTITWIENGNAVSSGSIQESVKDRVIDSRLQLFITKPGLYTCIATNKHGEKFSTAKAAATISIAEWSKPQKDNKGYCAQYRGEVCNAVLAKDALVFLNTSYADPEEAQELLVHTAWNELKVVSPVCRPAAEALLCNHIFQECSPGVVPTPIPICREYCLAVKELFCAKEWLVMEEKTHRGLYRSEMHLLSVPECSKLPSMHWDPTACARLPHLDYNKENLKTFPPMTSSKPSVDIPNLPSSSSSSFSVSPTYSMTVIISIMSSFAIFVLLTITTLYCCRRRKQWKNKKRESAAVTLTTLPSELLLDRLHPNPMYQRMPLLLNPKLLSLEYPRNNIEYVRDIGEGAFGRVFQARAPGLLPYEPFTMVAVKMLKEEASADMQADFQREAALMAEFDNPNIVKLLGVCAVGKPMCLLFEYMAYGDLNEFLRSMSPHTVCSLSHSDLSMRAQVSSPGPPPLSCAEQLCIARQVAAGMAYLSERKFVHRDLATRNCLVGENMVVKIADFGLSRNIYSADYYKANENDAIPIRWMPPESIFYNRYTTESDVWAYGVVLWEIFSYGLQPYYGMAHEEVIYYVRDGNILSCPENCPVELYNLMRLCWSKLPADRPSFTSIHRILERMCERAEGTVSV

[7] = target: T3, Inhibitor of nuclear factor kappa-B kinase subunit beta (Homo sapiens) (UniProt O14920); assay: Inhibition of IKK-beta (unknown origin) assessed as residual activity at 100 nM by KINOMEscan analysis relative to control
T3 sequence (whole entry): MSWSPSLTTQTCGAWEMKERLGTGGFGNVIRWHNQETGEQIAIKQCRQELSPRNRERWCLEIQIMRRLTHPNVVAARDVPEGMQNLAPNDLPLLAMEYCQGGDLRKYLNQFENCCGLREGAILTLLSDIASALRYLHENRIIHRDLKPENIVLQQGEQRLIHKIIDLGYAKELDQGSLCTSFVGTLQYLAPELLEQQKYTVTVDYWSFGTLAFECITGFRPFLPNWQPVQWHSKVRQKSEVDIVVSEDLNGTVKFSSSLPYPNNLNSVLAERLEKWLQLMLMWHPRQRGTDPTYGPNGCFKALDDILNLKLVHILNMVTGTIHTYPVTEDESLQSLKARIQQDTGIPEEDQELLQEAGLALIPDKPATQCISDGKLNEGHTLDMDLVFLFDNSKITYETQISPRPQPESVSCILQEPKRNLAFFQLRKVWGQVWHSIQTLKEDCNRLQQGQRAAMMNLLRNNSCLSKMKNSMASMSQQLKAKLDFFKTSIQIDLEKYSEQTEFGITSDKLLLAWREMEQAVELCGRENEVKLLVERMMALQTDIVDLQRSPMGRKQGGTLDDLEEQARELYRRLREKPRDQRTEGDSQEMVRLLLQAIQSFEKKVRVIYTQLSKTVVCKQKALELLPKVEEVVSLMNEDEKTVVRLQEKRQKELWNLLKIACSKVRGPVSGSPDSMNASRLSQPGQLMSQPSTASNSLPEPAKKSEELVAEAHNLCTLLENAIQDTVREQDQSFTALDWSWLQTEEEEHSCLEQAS

Sequence of Ephrin type-A receptor 7 (Homo sapiens) (Q15375 28-998 limits assumed): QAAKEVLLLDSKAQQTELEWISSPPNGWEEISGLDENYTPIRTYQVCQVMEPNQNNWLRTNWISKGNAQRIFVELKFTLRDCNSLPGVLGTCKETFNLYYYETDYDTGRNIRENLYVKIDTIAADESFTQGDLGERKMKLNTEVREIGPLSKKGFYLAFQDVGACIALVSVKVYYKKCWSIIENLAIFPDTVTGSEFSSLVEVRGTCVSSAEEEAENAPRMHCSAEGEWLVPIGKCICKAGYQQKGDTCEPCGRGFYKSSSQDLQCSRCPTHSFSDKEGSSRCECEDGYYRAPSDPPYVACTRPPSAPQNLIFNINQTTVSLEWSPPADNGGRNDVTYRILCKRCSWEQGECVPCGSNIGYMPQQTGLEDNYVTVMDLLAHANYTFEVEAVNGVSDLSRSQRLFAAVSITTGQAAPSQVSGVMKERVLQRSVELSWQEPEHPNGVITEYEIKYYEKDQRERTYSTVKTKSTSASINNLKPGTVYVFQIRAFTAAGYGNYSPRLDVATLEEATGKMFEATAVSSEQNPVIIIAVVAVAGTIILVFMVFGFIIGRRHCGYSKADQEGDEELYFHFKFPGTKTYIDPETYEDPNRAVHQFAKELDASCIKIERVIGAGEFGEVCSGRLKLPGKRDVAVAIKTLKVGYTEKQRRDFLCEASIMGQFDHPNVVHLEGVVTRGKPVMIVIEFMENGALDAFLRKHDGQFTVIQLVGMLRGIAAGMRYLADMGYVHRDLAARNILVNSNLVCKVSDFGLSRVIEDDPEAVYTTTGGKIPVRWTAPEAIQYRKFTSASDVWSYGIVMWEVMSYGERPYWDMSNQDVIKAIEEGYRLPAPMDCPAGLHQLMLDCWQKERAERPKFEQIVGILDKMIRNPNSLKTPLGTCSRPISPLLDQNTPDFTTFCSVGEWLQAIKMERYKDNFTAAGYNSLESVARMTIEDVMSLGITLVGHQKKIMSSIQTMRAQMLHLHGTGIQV
Sequence of 5'-AMP-activated protein kinase catalytic subunit alpha-1 (Homo sapiens) (Q13131 whole entry, looked up): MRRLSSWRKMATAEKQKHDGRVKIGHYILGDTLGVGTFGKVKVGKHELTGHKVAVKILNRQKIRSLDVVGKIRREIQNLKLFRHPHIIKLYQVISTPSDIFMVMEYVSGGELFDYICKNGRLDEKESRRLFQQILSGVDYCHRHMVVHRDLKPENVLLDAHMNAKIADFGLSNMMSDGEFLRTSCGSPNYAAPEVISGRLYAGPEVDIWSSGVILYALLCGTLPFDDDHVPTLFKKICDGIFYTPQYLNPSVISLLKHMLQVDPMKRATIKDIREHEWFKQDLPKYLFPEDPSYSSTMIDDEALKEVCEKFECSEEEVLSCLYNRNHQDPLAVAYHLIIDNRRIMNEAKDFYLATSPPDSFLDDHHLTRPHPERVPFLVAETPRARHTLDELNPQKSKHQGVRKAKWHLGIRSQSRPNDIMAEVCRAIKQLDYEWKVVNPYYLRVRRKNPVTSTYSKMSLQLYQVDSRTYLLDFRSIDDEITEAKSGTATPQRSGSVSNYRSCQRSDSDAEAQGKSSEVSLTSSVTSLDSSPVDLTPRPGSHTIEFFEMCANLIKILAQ
Sequence of Cyclin-dependent kinase 4 (Homo sapiens) (P11802 whole entry): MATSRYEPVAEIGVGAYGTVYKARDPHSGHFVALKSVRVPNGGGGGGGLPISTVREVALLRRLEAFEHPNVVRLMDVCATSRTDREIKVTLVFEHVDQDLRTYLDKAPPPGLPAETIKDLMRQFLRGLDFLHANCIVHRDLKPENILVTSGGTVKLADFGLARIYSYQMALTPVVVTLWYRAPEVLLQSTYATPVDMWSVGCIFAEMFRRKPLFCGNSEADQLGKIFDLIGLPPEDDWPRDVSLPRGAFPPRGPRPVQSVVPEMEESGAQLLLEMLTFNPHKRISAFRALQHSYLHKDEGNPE

SMILES	Activity [1] [%]	Activity [2] [%]	Activity [3] [%]	Activity [4] [%]	Activity [5] [%]	Activity [6] [%]	Activity [7] [%]
COc1cc2nc(C)nc(N[C@H](C)c3cccc(-c4cn[nH]c4)c3)c2cc1OC	92	–	–	–	–	–	–
COc1cc2ncnc(N[C@H](C)c3cccc4ccccc34)c2cc1OC	–	92	100	78	100	98	84
